Reference: patent publication US10751802B1, “Method of producing silver nanoparticles using red sand” (KING SAUD UNIVERSITY, priority 2019, dated 2020)

Assays:
[1] = system: Acinetobacter baumannii (ATCC 19606); assay: agar well diffusion assay, inhibition zone; type: cell-based; conditions: standard antibiotic disc CIP (5), control
Procedure: (§1) Antibacterial activity of the exemplary silver nanoparticles, prepared as described above (except that centrifuging and drying were omitted, i.e., antimicrobial testing was performed without removing the silver nanoparticles from the red sand extract), was evaluated against pathogenic bacterial reference strains of Acinetobacter baumannii (ATCC 19606), Salmonella typhimurium (ATCC 14028), Escherichia coli (ATCC 35218), Pseudomonas aeruginosa (27853 AT), Staphylococcus aureus (25923 AT) and Proteus vulgaris (ATCC 49132) using an agar well diffusion assay. In particular, the antibacterial activity against each strain was determined by measuring the inhibition zone. Standard antibiotic discs, including Gentamycin (CN10 μg), Augmantin (AMC 30 μg), and Ciprofloxacin (CIP 5 μg), were used as controls.

[2] = system: Escherichia coli (ATCC 35218); assay: agar well diffusion assay, inhibition zone; type: cell-based; conditions: standard antibiotic disc CIP (5), control
Procedure: as §1

[3] = system: Pseudomonas aeruginosa (27853 AT); assay: agar well diffusion assay, inhibition zone; type: cell-based; conditions: standard antibiotic disc CIP (5), control
Procedure: as §1

S. typhimurium = assay: combination effect of silver nanoparticles with antibiotic discs; type: cell-based, Salmonella typhimurium; conditions: antibiotic disc alone; F 100 μg, FOS 50 μg, TE 30 μg, FEP 30 μg, MXF 5 μg, LEV 5 μg; Mueller-Hinton agar, 24 hours at 37° C.
Procedure: (§2) Moreover, combination effects were determined by first adjusting the turbidity of the previously mentioned bacterial strains to 0.5 MacFarland standards (10^8 CFU/mL), and swabbing the strains on Mueller-Hinton agar. Antibiotic discs alone were used as controls, respectively. […] To study the combination effect, 30 μl of the exemplary silver nanoparticles were loaded on the antibiotics discs then placed on the swabbed medium. The plates were incubated for 24 hours at 37° C. The diameters of the inhibition zones were measured and reported in millimeters.

P. aeruginosa = assay: as above; type: cell-based, Pseudomonas aeruginosa; conditions: antibiotic disc alone; F 100 μg, FOS 50 μg, TE 30 μg, FEP 30 μg, MXF 5 μg, LEV 5 μg; Mueller-Hinton agar, 24 hours at 37° C.
Procedure: as §2

S. aureus = assay: as above; type: cell-based, Staphylococcus aureus; conditions: antibiotic disc alone; RD 5 μg, E 15 μg, TOB 10 μg, TGC 15 μg, MXF 5 μg, LEV 5 μg; Mueller-Hinton agar, 24 hours at 37° C.
Procedure: as §2

E. coli = assay: as above; type: cell-based, Escherichia coli; conditions: antibiotic disc alone; F 100 μg, FOS 50 μg, TE 30 μg, FEP 30 μg, MXF 5 μg, LEV 5 μg; Mueller-Hinton agar, 24 hours at 37° C.
Procedure: as §2

A. baumannii = assay: as above; type: cell-based, Acinetobacter baumannii; conditions: antibiotic disc alone; F 100 μg, FOS 50 μg, TE 30 μg, FEP 30 μg, MXF 5 μg, LEV 5 μg; Mueller-Hinton agar, 24 hours at 37° C.
Procedure: as §2

P. vulgaris = assay: as above; type: cell-based, Proteus vulgaris; conditions: antibiotic disc alone; F 100 μg, FOS 50 μg, TE 30 μg, FEP 30 μg, MXF 5 μg, LEV 5 μg; Mueller-Hinton agar, 24 hours at 37° C.
Procedure: as §2

[4] = system: Proteus vulgaris (ATCC 49132); assay: agar well diffusion assay, inhibition zone; type: cell-based; conditions: standard antibiotic disc AMC (30), control
Procedure: as §1

[5] = system: Salmonella typhimurium (ATCC 14028); assay: agar well diffusion assay, inhibition zone; type: cell-based; conditions: standard antibiotic disc CN (10), control
Procedure: as §1

[6] = system: Staphylococcus aureus (25923 AT); assay: agar well diffusion assay, inhibition zone; type: cell-based; conditions: standard antibiotic disc CN (10), control
Procedure: as §1

Compound | C: inhibition zone of the antibiotic alone as a control (S. typhimurium) | C: inhibition zone of the antibiotic alone as a control (P. aeruginosa) | C: inhibition zone of the antibiotic alone as a control (S. aureus) | C: inhibition zone of the antibiotic alone as a control (E. coli) | C: inhibition zone of the antibiotic alone as a control (A. baumannii) | C: inhibition zone of the antibiotic alone as a control (P. vulgaris) | also measured
O=C(O)c1cn(C2CC2)c2cc(N3CCNCC3)c(F)cc2c1=O [CIP, Ciprofloxacin] | – | – | – | – | – | – | Diameter of inhibition zone, standard antibiotic disc [1]: CIP (5) = 25 mm; Diameter of inhibition zone, standard antibiotic disc [2]: CIP (5) = 33 mm; Diameter of inhibition zone, standard antibiotic disc [3]: CIP (5) = 31 mm
CO/N=C(\C(=O)N[C@@H]1C(=O)N2C(C(=O)[O-])=C(C[N+]3(C)CCCC3)CS[C@H]12)c1csc(N)n1 [Cefepime] | 23.5 mm | 11 mm | – | – | – | – | –
CC[C@H]1OC(=O)[C@H](C)[C@@H](O[C@H]2C[C@@](C)(OC)[C@@H](O)[C@H](C)O2)[C@H](C)[C@@H](O[C@@H]2O[C@H](C)C[C@H](N(C)C)[C@H]2O)[C@](C)(O)C[C@@H](C)C(=O)[C@H](C)[C@@H](O)[C@]1(C)O [Erythromycin] | – | – | 32 mm | – | – | – | –
C[C@@H]1O[C@@H]1P(=O)(O)O [Fosfomycin] | 20.5 mm | 27 mm | – | 24 mm | 10 mm | 11 mm | –
C[C@H]1COc2c(N3CCN(C)CC3)c(F)cc3c(=O)c(C(=O)O)cn1c23 [Levofloxacin] | 30 mm | 27 mm | 27 mm | 35 mm | 23 mm | 33 mm | –
COc1c(N2C[C@@H]3CCCN[C@@H]3C2)c(F)cc2c(=O)c(C(=O)O)cn(C3CC3)c12 [Moxifloxacin] | 30 mm | 22.5 mm | 33 mm | 31 mm | 20 mm | 19. mm | –
O=C1CN(/N=C/c2ccc([N+](=O)[O-])o2)C(=O)N1 [Nitrofurantoin] | 23.5 mm | – | – | 21.5 mm | 11 mm | 10 mm | –
CO[C@H]1/C=C/O[C@@]2(C)Oc3c(C)c(O)c4c(O)c(c(/C=N/N5CCN(C)CC5)c(O)c4c3C2=O)NC(=O)/C(C)=C\C=C\[C@H](C)[C@H](O)[C@@H](C)[C@@H](O)[C@@H](C)[C@H](OC(C)=O)[C@@H]1C [Rifampicin] | – | – | 34.5 mm | – | – | – | –
CN(C)[C@@H]1C(O)=C(C(N)=O)C(=O)[C@@]2(O)C(O)=C3C(=O)c4c(O)cccc4[C@@](C)(O)[C@H]3C[C@@H]12 [Tetracycline] | 18 mm | 11.5 mm | – | 17 mm | 11.5 mm | 11. mm | –
CN(C)c1cc(NC(=O)CNC(C)(C)C)c(O)c2c1C[C@H]1C[C@H]3[C@H](N(C)C)C(O)=C(C(N)=O)C(=O)[C@@]3(O)C(O)=C1C2=O [Tigecycline] | – | – | 24 mm | – | – | – | –
NC[C@H]1O[C@H](O[C@H]2[C@H](O)[C@@H](O[C@H]3O[C@H](CO)[C@@H](O)[C@H](N)[C@H]3O)[C@H](N)C[C@@H]2N)[C@H](N)C[C@@H]1O [Tobramycin] | – | – | 26 mm | – | – | – | –
Augmantin [AMC] | – | – | – | – | – | – | Diameter of inhibition zone, standard antibiotic disc [4]: AMC (30) = 32 mm
Gentamycin [CN] | – | – | – | – | – | – | Diameter of inhibition zone, standard antibiotic disc [5]: CN (10) = 24 mm; Diameter of inhibition zone, standard antibiotic disc [6]: CN (10) = 30 mm
